Assay results: patent publication US4594347A, “Pyrrolo [3,2,1-ij]-quinoline carboxylic acid compound” (Otsuka Pharmaceutical Co. Limited, priority 1983, dated 1986)

How the values were obtained:
Test in all cases: Antimicrobial test in vitro (MIC, agar plate dilution method)
Assay type in all cases: cell-based
Set-up in all cases: unit not given here
[1] = test system: Staphylococcus aureus FDA 209P; conditions: S. aureus FDA 209P
Protocol: (§1) The antimicrobial activities of the following test compounds were tested by measuring the minimum inhibitory concentration (MIC) by an agar plate dilution method [cf. Chemotherapy, 22, 1126-1128 (1974)]. The test microorganisms were used in a concentration of 1×10^8 cells/ml (optical dencity (O.D.) at 660 m: 0.07-0.16) and 1×10^6 cells/ml (dilution: 100 folds).
A: Staphylococcus aureus FDA 209P

[2] = test system: Streptococcus pyogenes II D S-23; conditions: S. pyogenes II D S-23
Protocol: as §1
B: Streptococcus pyogenes II D S-23

[3] = test system: Escherichia coli NIHJ JC-2; conditions: E. coli NIHJ JC-2
Protocol: as §1
C: Escherichia coli NIHJ JC-2

Escherichia coli No. 29 = conditions: E. coli No. 29
Protocol: as §1
D: Escherichia coli No. 29

[4] = test system: Klebsiella pneumoniae NCTC 9632; conditions: K. pneumoniae NCTC 9632
Protocol: as §1
E: Klebsiella pneumoniae NCTC 9632

Proteus mirabilis 1287 = conditions: P. mirabilis 1287
Protocol: as §1
F: Proteus mirabilis 1287

[5] = test system: Proteus morganii II D Kono; conditions: P. morganii II D Kono
Protocol: as §1
G: Proteus morganii II D Kono

[6] = test system: Serratia marcescens IFO 12648; conditions: S. marcescens IFO 12648
Protocol: as §1
H: Serratia marcescens IFO 12648

[7] = test system: Acinetobacter calcoaceticus AC-54; conditions: A. calcoaceticus AC-54
Protocol: as §1
I: Acinetobacter calcoaceticus AC-54

[8] = test system: Pseudomonas aeruginosa ATCC 10145; conditions: P. aeruginosa ATCC 10145
Protocol: as §1
J: Pseudomonas aeruginosa ATCC 10145

[9] = test system: Pseudomonas aeruginosa E-2; conditions: P. aeruginosa E-2
Protocol: as §1
K: Pseudomonas aeruginosa E-2

Row | Structure (SMILES) | minimum inhibitory concentration (MIC) ([1]; 1×10^6 cells/ml) | minimum inhibitory concentration (MIC) ([1]; 1×10^8 cells/ml) | minimum inhibitory concentration (MIC) ([2]; 1×10^6 cells/ml) | minimum inhibitory concentration (MIC) ([2]; 1×10^8 cells/ml) | minimum inhibitory concentration (MIC) ([3]; 1×10^6 cells/ml) | minimum inhibitory concentration (MIC) ([3]; 1×10^8 cells/ml) | minimum inhibitory concentration (MIC) (Escherichia coli No. 29; 1×10^6 cells/ml) | minimum inhibitory concentration (MIC) (Escherichia coli No. 29; 1×10^8 cells/ml) | minimum inhibitory concentration (MIC) ([4]; 1×10^6 cells/ml) | minimum inhibitory concentration (MIC) ([4]; 1×10^8 cells/ml) | minimum inhibitory concentration (MIC) (Proteus mirabilis 1287; 1×10^6 cells/ml) | minimum inhibitory concentration (MIC) (Proteus mirabilis 1287; 1×10^8 cells/ml) | minimum inhibitory concentration (MIC) ([5]; 1×10^6 cells/ml) | minimum inhibitory concentration (MIC) ([5]; 1×10^8 cells/ml) | minimum inhibitory concentration (MIC) ([6]; 1×10^6 cells/ml) | minimum inhibitory concentration (MIC) ([6]; 1×10^8 cells/ml) | minimum inhibitory concentration (MIC) ([7]; 1×10^6 cells/ml) | minimum inhibitory concentration (MIC) ([7]; 1×10^8 cells/ml) | minimum inhibitory concentration (MIC) ([8]; 1×10^6 cells/ml) | minimum inhibitory concentration (MIC) ([8]; 1×10^8 cells/ml) | other results
1 | CC1Cc2c(N3CCCCC3)c(F)c(N)c3c(=O)c(C(=O)O)cn1c23 (centres unmarked) [Compound 4, 7-amino-8-fluoro-2-methyl-6-oxo-9-(1-piperidyl)-1,2-dihydro-pyrrolo[3,2,1-ij]quinoline-5-carboxylic acid] | 0.39 | 0.39 | 25 | 25 | 0.78 | 0.78 | 1.56 | 1.56 | 1.56 | 3.13 | 6.25 | 6.25 | 1.56 | 1.56 | 6.25 | 6.25 | 6.25 | 6.25 | 12.5 | 25 | minimum inhibitory concentration (MIC) ([9]; 1×10^6 cells/ml): 25; minimum inhibitory concentration (MIC) ([9]; 1×10^8 cells/ml): 25
2 | CC1Cc2c(N3CCC(O)CC3)c(F)c(N)c3c(=O)c(C(=O)O)cn1c23 (centres unmarked) [Compound 5, 7-amino-8-fluoro-9-(4-hydroxy-1-piperidyl)-2-methyl-6-oxo-1,2-dihydro-pyrrolo[3,2,1-ij]quinoline-5-carboxylic acid] | 0.2 | 0.39 | 6.25 | 12.5 | 0.39 | 0.78 | 0.78 | 0.78 | 0.78 | 0.78 | 1.56 | 1.56 | 1.56 | 1.56 | 1.56 | 3.13 | 3.13 | 6.25 | 6.25 | 6.25 | minimum inhibitory concentration (MIC) ([9]; 1×10^6 cells/ml): 6.25; minimum inhibitory concentration (MIC) ([9]; 1×10^8 cells/ml): 12.5
3 | CC1Cc2c(N3CCOCC3)c(F)c(N)c3c(=O)c(C(=O)O)cn1c23 (centres unmarked) [Compound 3, 7-amino-8-fluoro-9-(4-morpholino)-2-methyl-6-oxo-1,2-dihydro-pyrrolo[3,2,1-ij]quinoline-5-carboxylic acid] | 0.2 | 0.39 | 12.5 | 12.5 | 0.2 | 0.2 | 0.2 | 0.39 | 0.39 | 0.39 | 0.78 | 1.56 | 0.39 | 0.39 | 0.78 | 0.78 | 0.78 | 1.56 | 3.13 | 6.25 | minimum inhibitory concentration (MIC) ([9]; 1×10^6 cells/ml): 6.25; minimum inhibitory concentration (MIC) ([9]; 1×10^8 cells/ml): 6.25
4 | CC1Cc2c(N3CCCC3)c(F)c(N)c3c(=O)c(C(=O)O)cn1c23 (centres unmarked) [Compound 6, 7-amino-8-fluoro-2-methyl-6-oxo-9-(1-pyrrolidinyl)-1,2-dihydro-pyrrolo[3,2,1-ij]quinoline-5-carboxylic acid] | 0.39 | 0.78 | 6.25 | 12.5 | 0.78 | 1.56 | 1.56 | 1.56 | 1.56 | 6.25 | 6.25 | 6.25 | 6.25 | 6.25 | 6.25 | 6.25 | 6.25 | 6.25 | 6.25 | 12.5 | minimum inhibitory concentration (MIC) ([9]; 1×10^6 cells/ml): 1.56; minimum inhibitory concentration (MIC) ([9]; 1×10^8 cells/ml): 12.5
5 | CC1Cc2c(N3CCNCC3)c(F)c(N)c3c(=O)c(C(=O)O)cn1c23 (centres unmarked) [Compound 2, 8-fluoro-2-methyl-9-(1-piperazinyl)-7-amino-6-oxo-1,2-dihydro-pyrrolo[3,2,1-ij]quinoline-5-carboxylic acid] | 0.39 | 0.78 | 3.13 | 6.25 | 0.1 | 0.1 | 0.1 | 0.1 | 0.1 | 0.2 | 0.2 | 0.2 | 0.2 | 0.39 | 0.2 | 0.2 | 0.78 | 3.13 | 0.39 | 0.39 | minimum inhibitory concentration (MIC) ([9]; 1×10^6 cells/ml): 0.39; minimum inhibitory concentration (MIC) ([9]; 1×10^8 cells/ml): 0.39
